Data: US20250304551A1 (SHANGHAI APEIRON THERAPEUTICS COMPANY LIMITED, priority 2022, published 2025)

Assays:
[1] = target: T1, Human KIF18A (amino acid sequence 1-417) (Homo sapiens, UniProt Q8NI77); experiment: Enzyme activity detection experiment (ADP-Glo, KIF18A with tubulin and ATP); assay type: biochemical; settings: tubulin 60 μg/mL, ATP 25 μM, KIF18A protein 2.5 nM, 120 minutes at ambient temperature, ADP-Glo chemiluminescence
T1 construct: purchased Viva Biotech (Shanghai) Ltd
Experimental: Materials: Human KIF18A (amino acid sequence 1-417) was obtained from Viva Biotech (Shanghai) Ltd., and the ADP-Glo™ protein kinase kit was acquired from Promega, USA. Tubulin was sourced from Cytoskeleton, USA, while a 384-well assay plate and the Envision multifunctional microplate reader were obtained from PerkinElmer, USA.
Enzyme activity detection: The compound powder in DMSO was firstly dissolved to prepare a 10 mM stock solution. Next, gradient dilutions were prepared in the microplate to achieve final concentrations of […]. Sequentially, 2.5 μL of tubulin (60 μg/mL), the compound, ATP (25 μM), and KIF18A protein (2.5 nM) were added to each well, and the reaction was incubated at ambient temperature for 120 minutes. After the reaction, 10 μL of ADP-Glo™ reagent was added to each well and incubated at ambient temperature for 30 minutes. Subsequently, 20 μL of detection reagent was added to each well and incubated for an additional 30 minutes in the dark. Finally, chemiluminescence detection was performed using the PerkinElmer Envision multifunctional microplate reader.

[2] = tested on: OVCAR3 cells; experiment: Cell proliferation activity test, OVCAR3 (CyQUANT Direct); assay type: cell-based; settings: Homo sapiens, OVCAR-3, 72 h, 3 days incubation, CyQUANT fluorescence detection, read-out: OVCAR-3 Cell Viability_IC50_nM
Experimental: Materials and Cells: OVCAR3 cells were purchased from Nanjing Cobioer Biosciences Co., Ltd. RPMI-1640 medium, fetal bovine serum, and the CyQUANT Direct Cell Proliferation Assay kit were purchased from Thermo Fisher Scientific, USA; 96-well cell culture plates were sourced from Corning, USA.
Cell Culture: Culture OVCAR3 cells with RPMI-1640 medium containing […] and incubate them in a […] incubator at 37° C. Only cells in the logarithmic growth phase can be used for the test.
Inoculate OVCAR3 cells into a 96-well cell culture plate at 90 μL per well and incubate overnight in a […] incubator at 37° C. Dissolve the compound powder in DMSO to prepare a stock solution of 10 mM. Then perform gradient dilution for the compounds in the microplate to achieve a final concentration of 0-10 μM. Add 10 μL of cell culture medium containing compounds to each well to make the final DMSO content 0.20%. Incubate the cell plates in a […] incubator at 37° C. for 3 days. Add 100 μL of CyQUANT detection reagent to each well, react at 37° C. for 60 min, and perform fluorescence detection using the PerkinElmer Envision.

T1 sequence (Q8NI77 1-417): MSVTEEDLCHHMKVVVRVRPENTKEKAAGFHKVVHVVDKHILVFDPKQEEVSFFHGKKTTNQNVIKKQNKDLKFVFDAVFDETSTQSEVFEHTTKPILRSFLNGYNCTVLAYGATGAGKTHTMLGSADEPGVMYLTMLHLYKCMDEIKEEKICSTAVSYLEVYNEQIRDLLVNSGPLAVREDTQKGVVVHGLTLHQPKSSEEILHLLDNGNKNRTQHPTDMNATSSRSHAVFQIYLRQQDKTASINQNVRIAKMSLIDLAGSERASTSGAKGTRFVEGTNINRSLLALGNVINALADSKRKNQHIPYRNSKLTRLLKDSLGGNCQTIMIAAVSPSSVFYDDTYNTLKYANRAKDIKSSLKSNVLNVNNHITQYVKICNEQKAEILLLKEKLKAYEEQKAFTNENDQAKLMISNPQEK
T1 sequence (Q2XVP4 whole entry partner): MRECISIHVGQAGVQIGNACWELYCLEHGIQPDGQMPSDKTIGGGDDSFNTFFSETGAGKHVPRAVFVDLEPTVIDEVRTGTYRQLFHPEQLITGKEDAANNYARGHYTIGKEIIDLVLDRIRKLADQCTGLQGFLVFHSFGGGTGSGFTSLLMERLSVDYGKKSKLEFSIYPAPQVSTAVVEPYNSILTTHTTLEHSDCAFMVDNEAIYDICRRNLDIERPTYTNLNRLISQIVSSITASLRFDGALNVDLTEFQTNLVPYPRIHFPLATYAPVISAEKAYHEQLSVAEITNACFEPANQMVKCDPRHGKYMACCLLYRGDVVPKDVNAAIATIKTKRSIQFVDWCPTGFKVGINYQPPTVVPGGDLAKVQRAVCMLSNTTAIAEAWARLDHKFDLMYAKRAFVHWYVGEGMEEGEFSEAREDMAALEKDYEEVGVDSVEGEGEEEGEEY
T1 sequence (P02554 whole entry partner): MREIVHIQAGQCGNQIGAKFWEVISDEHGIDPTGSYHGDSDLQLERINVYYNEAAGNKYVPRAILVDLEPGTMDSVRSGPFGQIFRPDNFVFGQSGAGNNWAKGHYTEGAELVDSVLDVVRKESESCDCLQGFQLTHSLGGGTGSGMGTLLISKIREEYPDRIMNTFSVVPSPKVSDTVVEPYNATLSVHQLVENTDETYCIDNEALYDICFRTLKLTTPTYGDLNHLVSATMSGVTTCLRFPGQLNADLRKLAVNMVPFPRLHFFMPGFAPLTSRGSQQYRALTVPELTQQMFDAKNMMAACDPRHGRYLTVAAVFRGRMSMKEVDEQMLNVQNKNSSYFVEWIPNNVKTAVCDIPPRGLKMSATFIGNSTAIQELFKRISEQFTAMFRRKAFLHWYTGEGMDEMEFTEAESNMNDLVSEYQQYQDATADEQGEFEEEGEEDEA

Row | SMILES | IC50 [1] | IC50 [2]
1 | Cc1cc(-c2cn(-c3ccc(NS(=O)(=O)CCO)cc3N3CCC4(CC3)CC4)nn2)nc(N2CC3CC2CO3)n1 (stereo not shown) [Example 47, N-(4-(4-(2-(2-oxa-5-azabicyclo[2.2.1]heptan-5-yl)-6-methylpyrimidin-4-yl)-1H-1,2,3-triazol-1-yl)-3-(6-azaspiro[2.5]octan-6-yl)phenyl)-2-hydroxyethane-1-sulfonamide] | 64 nM | 37 nM
2 | C[C@H](CO)S(=O)(=O)Nc1ccc(-n2cc(-c3cc(N4CCC(F)(F)CC4)c4ncccc4c3)nn2)c(N2CCC3(CC2)CC3)c1 [Example 99, (2R)—N-(3-(6-azaspiro[2.5]octan-6-yl)-4-{4-[8-(4,4-difluoropiperidin-1-yl)quinolin-6-yl]-1H-1,2,3-triazol-1-yl}phenyl)-1-hydroxypropane-2-sulfonamide] | 214 nM | 
3 | Cc1cc2nc(-c3ccc(NS(=O)(=O)CCO)cc3N3CCC4(CC3)CC4)[nH]c2c(N2CCC(F)(F)CC2)n1 [Example 106, N-(4-(4-(4,4-difluoropiperidin-1-yl)-6-methyl-3H-imidazo[4,5-c]pyridin-2-yl)-3-(6-azaspiro[2.5]octan-6-yl)phenyl)-2-hydroxyethane-1-sulfonamide] | 210 nM | 
4 | Cc1cc(-c2nnc(-c3ccc(NS(=O)(=O)C(C)(C)CO)cc3N3CCC4(CC3)CC4)o2)cc(N2CCC(F)(F)CC2)n1 [Example 104, N-(4-(5-(2-(4,4-difluoropiperidin-1-yl)-6-methylpyridin-4-yl)-1,3,4-oxadiazol-2-yl)-3-(6-azaspiro[2.5]octan-6-yl)phenyl)-1-hydroxy-2-methylpropane-2-sulfonamide] | 83 nM | 
5 | C[C@@H](CO)S(=O)(=O)Nc1ccc(-n2cc(-c3cc(N4CCC(F)(F)CC4)c4ncccc4c3)nn2)c(N2CCC3(CC2)CC3)c1 [Example 100, (2S)—N-(3-{6-azaspiro[2.5]octan-6-yl}-4-{4-[8-(4,4-difluoropiperidin-1-yl)quinolin-6-yl]-1H-1,2,3-triazol-1-yl}phenyl)-1-hydroxypropane-2-sulfonamide] | 187 nM | 
6 | O=S(=O)(CCO)Nc1ccc(-n2cc(-c3cc(OC4CCOC4)nc(N4CCC(F)(F)CC4)n3)nn2)c(N2CCC3(CC2)CC3)c1 (stereo not shown) [Example 96, N-(3-{6-azaspiro[2.5]octan-6-yl}-4-{4-[2-(4,4-difluoropiperidin-1-yl)-6-(oxolan-3-yloxy)pyrirmidin-4-yl]-1H-1,2,3-triazol-1-yl}phenyl)-2-hydroxyethane-1-sulfonamide] | 117 nM | 
7 | O=S(=O)(CCO)Nc1ccc(-n2cc(-c3cc(OCCO)nc(N4CCC(F)(F)CC4)n3)nn2)c(N2CCC3(CC2)CC3)c1 [Example 95, N-(3-{6-azaspiro[2.5]octan-6-yl}-4-{4-[2-(4,4-difluoropiperidin-1-yl)-6-(2-hydroxyethoxy)pyrimidin-4-yl]-1H-1,2,3-triazol-1-yl}phenyl)-2-hydroxyethane-1-sulfonamide] | 73 nM | 7 nM
8 | Cc1ccc2cc(-c3cn(-c4ccc(NS(=O)(=O)CCO)cc4N4CCC5(CC4)CC5)nn3)c(F)c(N3CCC(F)(F)CC3)c2n1 [Example 75, N-(3-{6-azaspiro[2.5]octan-6-yl}-4-{4-[8-(4,4-difluoropiperidin-1-yl)-7-fluoro-2-methylquinolin-6-yl]-1H-1,2,3-triazol-1-yl}phenyl)-2-hydroxyethane-1-sulfonamide] | > 3000 nM | 300 nM
9 | Cc1cc(-c2cc(-c3ccc(NS(=O)(=O)CCO)cc3N3CCC4(CC3)CC4)on2)nc(N2CCC(F)(F)CC2)n1 [Example 5, N-(4-(3-(2-(4,4-difluoropiperidin-1-yl)-6-methylpyrimidin-4-yl)isoxazol-5-yl)-3-(6-azaspiro[2.5]octan-6-yl)phenyl)-2-hydroxyethane-1-sulfonamide] | 1050 nM | 389 nM
10 | CC(C)(CO)S(=O)(=O)Nc1ccc(-n2cc(-c3cc(N4CCC(F)(F)CC4)c4ncccc4c3)nn2)c(N2CCC3(CC2)CC3)c1 [Example 101, N-(4-(4-(8-(4,4-difluoropiperidin-1-yl)quinolin-6-yl)-1H-1,2,3-triazol-1-yl)-3-(6-azaspiro[2.5]octan-6-yl)phenyl)-1-hydroxy-2-methylpropane-2-sulfonamide] | 320 nM | 
11 | Cc1cc(-c2cn(-c3ccc(NS(=O)(=O)CCO)cc3N3CCC4(CC3)CC4)nn2)nc(C2COCCO2)n1 (stereo not shown) [Example 40, N-(4-(4-(2-(1,4-dioxan-2-yl)-6-methylpyrimidin-4-yl)-1H-1,2,3-triazol-1-yl)-3-(6-azaspiro[2.5]octan-6-yl)phenyl)-2-hydroxyethane-1-sulfonamide] | > 3000 nM | 411 nM

More lines, now with the values ahead:

Row | IC50 [1] | IC50 [2] | SMILES
12 | 62 nM |  | COc1cc(-c2nnc(-c3ccc(NS(=O)(=O)C(C)(C)CO)cc3N3CCC4(CC3)CC4)o2)cc(N2CCC(F)(F)CC2)n1 [Example 105, N-(4-(5-(2-(4,4-difluoropiperidin-1-yl)-6-methoxypyridin-4-yl)-1,3,4-oxadiazol-2-yl)-3-(6-azaspiro[2.5]octan-6-yl)phenyl)-1-hydroxy-2-methylpropane-2-sulfonamide]
13 | 73 nM |  | Cc1cc(-c2nnc(-c3ccc(NS(=O)(=O)C(C)CO)cc3N3CCC4(CC3)CC4)o2)cc(N2CCC(F)(F)CC2)n1 (stereo not shown) [Example 103, N-(4-(5-(2-(4,4-difluoropiperidin-1-yl)-6-methylpyridin-4-yl)-1,3,4-oxadiazol-2-yl)-3-(6-azaspiro[2.5]octan-6-yl)phenyl)-1-hydroxypropane-2-sulfonamide]
14 | 234 nM |  | O=S(=O)(CCO)Nc1ccc(-n2cc(-c3cc(OCC4CCOC4)nc(N4CCC(F)(F)CC4)n3)nn2)c(N2CCC3(CC2)CC3)c1 (stereo not shown) [Example 97, N-(3-(6-azaspiro[2.5]octan-6-yl)-4-{4-[2-(4,4-difluoropiperidin-1-yl)-6-[(oxolan-3-yl)methoxy]pyrimidin-4-yl]-1-1,2,3-triazol-1-yl}phenyl)-2-hydroxyethane-1-sulfonamide]
15 | 1090 nM | 257 nM | Cc1cc(-c2cc(-c3ccc(NS(=O)(=O)CCO)cc3N3CCC4(CC3)CC4)n[nH]2)nc(N2CCC(F)(F)CC2)n1 [Example 6, N-(4-(5-(2-(4,4-difluoropiperidin-1-yl)-6-methylpyrimidin-4-yl)-1H-pyrazol-3-yl)-3-(6-azaspiro[2.5]octan-6-yl)phenyl)-2-hydroxyethane-1-sulfonamide]
16 | 154 nM |  | CCC(CO)S(=O)(=O)Nc1ccc(-n2cc(-c3cc(C)nc(N4CCC(F)(F)CC4)n3)nn2)c(N2CCC3(CC2)CC3)c1 (stereo not shown) [Example 98, N-(3-{6-azaspiro[2.5]octan-6-yl}-4-{4-[2-(4,4-difluoropiperidin-1-yl)-6-methylpyrimidin-4-yl]-1H-1,2,3-triazol-1-yl}phenyl)-1-hydroxybutane-2-sulfonamide]
17 | 452 nM | 424 nM | Cc1cc(-c2cn(-c3ccc(NS(=O)(=O)CCO)cc3N3CCC4(CC3)CC4)nn2)nc(C2=COCCO2)n1 [Example 38, N-(4-(4-(2-(5,6-dihydro-1,4-dioxin-2-yl)-6-methylpyrimidin-4-yl)-1H-1,2,3-triazol-1-yl)-3-(6-azaspiro[2.5]octan-6-yl)phenyl)-2-hydroxyethane-1-sulfonamide]
18 | 60 nM |  | COc1cc(-c2nnc(-c3ccc(NS(=O)(=O)C(C)CO)cc3N3CCC4(CC3)CC4)o2)cc(N2CCC(F)(F)CC2)n1 (stereo not shown) [Example 102, N-(4-(5-(2-(4,4-difluoropiperidin-1-yl)-6-methoxypyridin-4-yl)-1,3,4-oxadiazol-2-yl)-3-(6-azaspiro[2.5]octan-6-yl)phenyl)-1-hydroxypropane-2-sulfonamide]
